# Measurements taken from ChEMBL document CHEMBL6103591, “Discovery of naphthoquinone-furo-piperidone derivatives as dual targeting agents of STAT3 and NQO1 for the treatment of breast cancer” (Eur J Med Chem, 2025).
# The source made the active and inactive calls. The rule behind the calls is not given here.
# How the values were obtained:
# [1] = target: T1, Signal transducer and activator of transcription 3 (Homo sapiens, UniProt P40763); assay: Inhibition of STAT3 activation in human MDA-MB-231 cells assessed as reduction in STAT3 phosphorylation at Tyr705 residue at 1 uM measured after 24 hrs by Western blot analysis relative to control; format: cell-based
# [2] = test system: MDA-MB-231; assay: Antiproliferative activity against human MDA-MB-231 cells transfected with shSTAT3 RNA at 1.5 uM incubated for 24 hrs by MTT assay; format: functional, cell-based
# [3] = test system: MDA-MB-468; assay: Antiproliferative activity against human MDA-MB-468 cells transfected with shSTAT3 RNA at 1.5 uM incubated for 24 hrs by MTT assay; format: functional, cell-based
# [4] = target: T1, Signal transducer and activator of transcription 3; assay: Inhibition of STAT3 in human MDA-MB-231 cells assessed as downregulation of c-Myc expression measured after 24 hrs by Western blot analysis; format: cell-based; settings: dose 0.6-2.5 µM
# [5] = target: T1, Signal transducer and activator of transcription 3; assay: Inhibition of STAT3 in human MDA-MB-231 cells assessed as downregulation of Cyclin-D1 expression measured after 24 hrs by Western blot analysis; format: cell-based; settings: dose 0.6-2.5 µM
# [6] = target: T1, Signal transducer and activator of transcription 3; assay: Inhibition of STAT3 in human MDA-MB-231 cells assessed as downregulation of survivin expression measured after 24 hrs by Western blot analysis; format: cell-based; settings: dose 0.6-2.5 µM
# [7] = test system: MDA-MB-231; assay: Effect on STAT1 expression level in human MDA-MB-231 cells at 0.6 to 2.5 uM incubated for 24 hrs by Western blot analysis; format: functional, cell-based; settings: dose 0.6-2.5 µM
# [8] = test system: MDA-MB-231; assay: Effect on STAT5 expression level in human MDA-MB-231 cells at 0.6 to 2.5 uM incubated for 24 hrs by Western blot analysis; format: functional, cell-based; settings: dose 0.6-2.5 µM
# [9] = target: T2, Signal transducer and activator of transcription 1-alpha/beta (Homo sapiens) (UniProt P42224); assay: Inhibition of STAT1 phosphorylation at Tyr701 residue in human MDA-MB-231 cells at 0.6 to 2.5 uM incubated for 24 hrs by Western blot analysis; format: cell-based; settings: dose 0.6-2.5 µM
# T2 sequence (whole entry): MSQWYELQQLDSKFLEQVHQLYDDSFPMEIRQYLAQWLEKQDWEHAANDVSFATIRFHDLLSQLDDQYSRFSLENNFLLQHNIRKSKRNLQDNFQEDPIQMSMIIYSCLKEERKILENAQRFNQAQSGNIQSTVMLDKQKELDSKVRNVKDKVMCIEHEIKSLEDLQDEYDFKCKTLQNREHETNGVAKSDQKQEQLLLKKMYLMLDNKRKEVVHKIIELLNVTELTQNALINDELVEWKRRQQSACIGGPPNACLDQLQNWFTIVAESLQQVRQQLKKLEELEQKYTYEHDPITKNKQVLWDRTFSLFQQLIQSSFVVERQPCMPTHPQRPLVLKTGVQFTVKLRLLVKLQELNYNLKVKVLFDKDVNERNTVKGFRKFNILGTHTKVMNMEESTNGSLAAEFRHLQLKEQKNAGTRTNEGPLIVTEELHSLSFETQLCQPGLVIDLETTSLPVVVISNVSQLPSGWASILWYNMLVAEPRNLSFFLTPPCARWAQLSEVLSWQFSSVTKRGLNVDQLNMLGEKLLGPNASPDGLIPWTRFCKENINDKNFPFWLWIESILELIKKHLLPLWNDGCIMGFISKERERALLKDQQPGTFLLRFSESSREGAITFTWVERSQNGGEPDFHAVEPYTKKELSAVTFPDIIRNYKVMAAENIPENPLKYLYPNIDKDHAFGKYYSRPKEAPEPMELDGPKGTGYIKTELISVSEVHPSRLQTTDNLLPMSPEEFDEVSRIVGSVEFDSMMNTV
# [10] = test system: MDA-MB-231; assay: Inhibition of STAT5 phosphorylation at Tyr694 residue in human MDA-MB-231 cells at 0.6 to 2.5 uM incubated for 24 hrs by Western blot analysis; format: cell-based; settings: dose 0.6-2.5 µM
# [11] = target: T1, Signal transducer and activator of transcription 3; assay: Inhibition of phosphorylated STAT3 nuclear translocation in human MDA-MB-231 cells incubated for 6 hrs by immunofluorescence assay; format: cell-based; settings: dose 1.5-3 µM
# [12] = target: T1, Signal transducer and activator of transcription 3; assay: Inhibition of phosphorylated STAT3 nuclear translocation in human MDA-MB-468 cells incubated for 6 hrs by immunofluorescence assay; format: cell-based; settings: dose 1.5-3 µM
# [13] = test system: MDA-MB-231; assay: Inhibition of colony formation in human MDA-MB-231 cells at 3 uM incubated for 10 to 15 days by crystal violet staining based microscopic analysis; format: functional, cell-based; settings: time 10-15 day
# [14] = test system: MDA-MB-468; assay: Inhibition of colony formation in human MDA-MB-468 cells at 3 uM incubated for 10 to 15 days by crystal violet staining based microscopic analysis; format: functional, cell-based; settings: time 10-15 day
# [15] = test system: MDA-MB-231; assay: Antimetastatic activity against human MDA-MB-231 cells assessed as reduction in cell invasion incubated for 24 hrs by crystal violet staining based transwell invasion assay; format: functional; settings: dose 0.1875-3 µM
# [16] = test system: MDA-MB-231; assay: Antimetastatic activity against human MDA-MB-231 cells assessed as reduction in cell migration incubated for 24 hrs by crystal violet staining based transwell assay; format: functional; settings: dose 0.1875-3 µM
# [17] = test system: MDA-MB-231; assay: Induction of apoptosis in human MDA-MB-231 cells assessed as increase in cleaved PARP level at 1.5 to 3 uM by Western blotting analysis; format: functional, cell-based; settings: dose 1.5-3 µM
# [18] = test system: MDA-MB-231; assay: Induction of apoptosis in human MDA-MB-231 cells assessed as increase in cleaved-caspase 3 level at 1.5 to 3 uM by Western blotting analysis; format: functional, cell-based; settings: dose 1.5-3 µM
# [19] = test system: MDA-MB-231; assay: Induction of apoptosis in human MDA-MB-231 cells assessed as increase in Bax level at 1.5 to 3 uM by Western blotting analysis; format: functional, cell-based; settings: dose 1.5-3 µM
# [20] = test system: MDA-MB-468; assay: Induction of apoptosis in human MDA-MB-468 cells assessed as increase in cleaved PARP level at 1.5 to 3 uM by Western blotting analysis; format: functional, cell-based; settings: dose 1.5-3 µM, time 24.0 hrs
# [21] = test system: MDA-MB-468; assay: Induction of apoptosis in human MDA-MB-468 cells assessed as increase in cleaved-caspase 3 level at 1.5 to 3 uM by Western blotting analysis; format: functional, cell-based; settings: dose 1.5-3 µM
# [22] = test system: MDA-MB-468; assay: Induction of apoptosis in human MDA-MB-468 cells assessed as increase in Bax level at 1.5 to 3 uM by Western blotting analysis; format: functional, cell-based; settings: dose 1.5-3 µM
# [23] = test system: MCF7; assay: Induction of ROS generation in NQO1-rich human MCF7 cells assessed as increase in intracellular ROS level by DCFH-DA staining based confocal microscopic analysis; format: functional, cell-based; settings: dose 1.25-2.5 µM
# [24] = test system: MCF7; assay: Induction of ROS generation in NQO1-rich human MCF7 cells assessed as increase in intracellular ROS level at 1.25 uM in presence of DIC by DCFH-DA staining based confocal microscopic analysis; format: functional, cell-based
# [25] = test system: MCF7; assay: Induction of DNA damage in human MCF7 cells at 1.25 uM incubated for 24 hrs by fluorescence microscopy based alkaline comet assay; format: functional, cell-based
# [26] = test system: MDA-MB-231; assay: Antitumor activity against human MDA-MB-231 cells xenografted in female BALB/c nude mouse assessed as reduction in tumor volume at 10 mg/kg, ip administered daily and measured every 2 days for 21 days; format: functional, organism-based; settings: time 21.0 day
# [27] = test system: MDA-MB-231; assay: Antitumor activity against human MDA-MB-231 cells xenografted in female BALB/c nude mouse assessed as reduction in tumor weight at 10 mg/kg, ip administered daily and measured every 2 days for 21 days; format: functional, organism-based; settings: time 21.0 day
# [28] = test system: MDA-MB-231; assay: Antitumor activity against human MDA-MB-231 cells xenografted in female BALB/c nude mouse assessed as increase in TUNEL-positive cells in tumor tissue at 10 mg/kg, ip administered daily and measured every 2 days for 21 days by immunofluorescence analysis; format: functional, organism-based; settings: time 21.0 day
# [29] = test system: Mus musculus; assay: In vivo inhibition of STAT3 in female BALB/c nude mouse xenografted with human MDA-MB-231 cells assessed as decrease in p-STAT3 level in tumor tissue at 10 mg/kg, ip administered daily and measured every 2 days for 21 days by IHC staining analysis; format: functional, organism-based; settings: time 21.0 day
# [30] = test system: MCF7; assay: Induction of DNA damage in human MCF7 cells at 1.25 uM incubated for 24 hrs in presence of DIC by fluorescence microscopy based alkaline comet assay; format: functional, cell-based
# [31] = test system: MDA-MB-231; assay: Antiproliferative activity against human MDA-MB-231 cells assessed as reduction in cell viability incubated for 48 hrs by MTT assay; format: functional, cell-based; settings: MDA-MB-231, 48 h
# [32] = test system: MDA-MB-468; assay: Antiproliferative activity against human MDA-MB-468 cells assessed as reduction in cell viability incubated for 48 hrs by MTT assay; format: functional, cell-based; settings: MDA-MB-468, 48 h
# [33] = test system: MDA-MB-231; assay: Downregulation of total STAT3 expression in human MDA-MB-231 cells at 1 uM incubated for 24 hrs by Western blotting analysis; format: functional, cell-based
# T1 sequence (P40763 whole entry): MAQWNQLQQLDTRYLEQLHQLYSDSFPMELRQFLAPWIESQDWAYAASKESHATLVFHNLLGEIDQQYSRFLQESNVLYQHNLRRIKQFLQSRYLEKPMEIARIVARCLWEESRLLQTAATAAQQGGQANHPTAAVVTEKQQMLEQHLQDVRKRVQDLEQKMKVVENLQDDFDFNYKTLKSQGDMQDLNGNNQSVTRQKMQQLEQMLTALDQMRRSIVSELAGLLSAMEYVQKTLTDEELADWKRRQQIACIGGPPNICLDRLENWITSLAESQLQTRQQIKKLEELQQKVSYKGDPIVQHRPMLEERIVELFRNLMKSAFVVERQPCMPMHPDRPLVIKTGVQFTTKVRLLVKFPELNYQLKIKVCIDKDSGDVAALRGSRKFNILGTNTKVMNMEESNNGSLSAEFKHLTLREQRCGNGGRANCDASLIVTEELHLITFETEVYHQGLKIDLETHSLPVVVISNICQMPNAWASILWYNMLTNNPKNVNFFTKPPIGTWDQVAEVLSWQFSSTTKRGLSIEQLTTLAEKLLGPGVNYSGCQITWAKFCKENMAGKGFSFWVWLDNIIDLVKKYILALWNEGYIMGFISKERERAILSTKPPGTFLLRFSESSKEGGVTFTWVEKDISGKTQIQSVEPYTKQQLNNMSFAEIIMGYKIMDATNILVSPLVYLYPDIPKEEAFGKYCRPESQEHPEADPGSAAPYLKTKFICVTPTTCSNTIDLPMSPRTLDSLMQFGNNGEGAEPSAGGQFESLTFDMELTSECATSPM
structure (smiles),measurement,setting,value
O=C1C(=O)c2c(oc3c2CCN(CCN2CCCCC2)C3=O)-c2ccccc21,inhibition,[1],Active
same,Activity,[2],Active; Less Sensitivity Observed
same,Activity,[3],Active; Less Sensitivity Observed
same,inhibition,[4],Dose-dependent-effect
same,inhibition,[5],Dose-dependent-effect
same,inhibition,[6],Dose-dependent-effect
same,Activity,[7],inactive
same,Activity,[8],inactive
same,inhibition,[9],inactive
same,inhibition,[10],inactive
same,inhibition,[11],Dose-dependent-effect
same,inhibition,[12],Dose-dependent-effect
same,inhibition,[13],Active
same,inhibition,[14],Active
same,Activity,[15],Dose-dependent-effect
same,Activity,[16],Dose-dependent-effect
same,Activity,[17],Active
same,Activity,[18],Active
same,Activity,[19],Active
same,Activity,[20],Active
same,Activity,[21],Active
same,Activity,[22],Active
same,Activity,[23],Dose-dependent-effect
same,Activity,[24],inactive
same,Activity,[25],Active
same,Activity,[26],Active
same,Activity,[27],Active
same,Activity,[28],Active
same,inhibition,[29],Active
same,Activity,[30],inactive
CCN(CC)CCN1CCc2c(oc3c2C(=O)C(=O)c2ccccc2-3)C1=O,IC50,[31],0.61 µM
same,IC50,[32],1.31 µM
same,inhibition,[1],Active
C[C@@H](C(N)=O)N1CCc2c(oc3c2C(=O)C(=O)c2ccccc2-3)C1=O,IC50,[31],3.51 µM
same,IC50,[32],2.89 µM
COC(=O)[C@H](CC(C)C)N1CCc2c(oc3c2C(=O)C(=O)c2ccccc2-3)C1=O,IC50,[31],2.44 µM
same,IC50,[32],2.66 µM
C[C@H]1CN(CCCN2CCc3c(oc4c3C(=O)C(=O)c3ccccc3-4)C2=O)CCO1,IC50,[31],0.8 µM
same,IC50,[32],1.72 µM
O=C1C(=O)c2c(oc3c2CCN(CCCO)C3=O)-c2ccccc21,IC50,[31],1.14 µM
same,IC50,[32],2.23 µM
O=C1C(=O)c2c(oc3c2CCN(C2CCC(N4CCOCC4)CC2)C3=O)-c2ccccc21 (configuration not stated),IC50,[31],1.23 µM
same,IC50,[32],1.29 µM
O=C1C(=O)c2c(oc3c2CCN(CCCN2CCCCC2)C3=O)-c2ccccc21,IC50,[31],0.33 µM
same,IC50,[32],1.2 µM
same,inhibition,[1],100%
same,Activity,[33],Active
O=C1C(=O)c2c(oc3c2CCN(CCCN2CCOCC2)C3=O)-c2ccccc21,IC50,[31],0.74 µM
same,IC50,[32],1.24 µM
CN(C)CCN1CCc2c(oc3c2C(=O)C(=O)c2ccccc2-3)C1=O,IC50,[31],0.54 µM
same,IC50,[32],1.56 µM
same,inhibition,[1],Active
